{
  "source": "patent US10894036B2",
  "about": "“Use of marizomib for the treatment of central nervous system (CNS) cancers” (Celgene International II Sàrl, priority 2016, dated 2021)",
  "key": {"CNS-MM": {"system": "CNS-MM", "assay": "Compassionate use of marizomib in CNS-myeloma patients: response (IMWG, CSF, MRI, neurological)", "type": "in vivo, human", "method": "This example sets forth seven case studies in which CNS-MM (i.e., multiple myeloma with CNS involvement) was treated using marizomib alone or in combination with other agents.\nDaratumumab (16 mg/kg weekly×2 months) was added with continued marizomib.\nMarizomib was given on compassionate use protocol (see above) at 0.7 mg/m^2 as a 10 min IV infusion on days 1, 8 and 15 along with dexamethasone on a 28 day Cycle.\nIn July 2016, marizomib was given on compassionate use protocol at 0.8 mg/m^2 as a 10 min IV infusion on days 1, 8 and 15 along with dexamethasone on a 28 day Cycle. Pomalidomide was also given at 4 mg daily on days 1 through days 21.\nIn August 2016, marizomib was given on compassionate use protocol at 0.7 mg/m^2 as a 10 min IV infusion on days 1, 8 and 15 along with dexamethasone on a 28 day Cycle. Pomalidomide was dosed at 4 mg daily on days 1 through days 21.\nThe patient was treated with marizomib, oral pomalidomide, and oral dexamethasone.\nAll patients had systemic disease with CNS involvement."}, "proteasome": {"system": "proteasome", "assay": "Proteasome activity in monkey brain", "type": "in vivo", "conditions": "monkey (primate)"}, "[1]": {"assay": "Quantitative whole body autoradiography: distribution to brain", "type": "in vivo, rat", "conditions": "rats", "source_text": "The definition of marizomib is understood to include marizomib as well as pharmaceutically acceptable salts, prodrugs, solvates, hydrates, tautomers, or isomers thereof. In specific embodiments, the term marizomib refers to Compound 1 or a pharmaceutically acceptable salt thereof. Without wishing to be bound by theory, marizomib is a proteasome inhibitor with unique features compared to other proteasome inhibitors. For example, marizomib inhibits all three catalytic activities of the proteasome and is capable of crossing the blood brain barrier (BBB). […] Radiolabeled marizomib has shown 30% CNS biodistribution compared with blood levels in rats. Marizomib can elicit a significant anti-tumor effect in a rodent model of malignant glioma."}, "clinical": {"assay": "clinical", "conditions": "human", "protocol": "Blood samples will be taken for peak and trough measurements, pre-dose and immediately prior to (end of infusion) EOI, on Cycle 1 Day 1. On Cycle 1 Day 15 full PK sampling will be done: pre-dose, immediately prior to EOI and then 2, 5, 15, 30, 45, 60, 90 and 120 minutes post infusion. The following PK parameters will be estimated by non-compartmental analysis:\nNon-compartmental analyses will be performed. […] Blood concentrations and computed PK parameters for MRZ will be listed and summarized by cohort (mean, geometric mean, standard deviation, coefficient of variation, minimum, maximum and number of observations).\nFor MRZ samples will be obtained before treatment and just prior to end of infusion on Cycle 1 Day 1. On Cycle 1 Day 15, MRZ blood samples will be obtained before treatment, just prior to end of infusion, and 2, 5, 15, 30, 45, 60, 90, and 120 minutes after the infusion. Every effort should be made to collect samples at the prescribed times, but deviations up to 10% of the time point are allowed. […] After blood collection, neutralizing solution must be added."}, "[2]": {"conditions": "7 CNS-MM patients, listed as Marizomib"}, "[3]": {"conditions": "whole blood, intravenous, 0.7 mg/m2"}, "[4]": {"conditions": "whole blood, intravenous, 0.8 mg/m2"}},
  "note": "“Also recorded” adds a separate entry of the source.",
  "data": [
    {"smiles": "C[C@@]12OC(=O)[C@]1([C@@H](O)[C@@H]1C=CCCC1)NC(=O)[C@@H]2CCCl", "note": "[marizomib]", "values": [
      {"measurement": "complete responses", "setting": "CNS-MM; 7 CNS-MM patients", "value": "two"},
      {"measurement": "partial responses", "setting": "CNS-MM; 7 CNS-MM patients", "value": 3},
      {"measurement": "patients with at least a partial response (overall response rate)", "setting": "CNS-MM; 7 CNS-MM patients", "value": "five of seven"},
      {"measurement": "patients with survival greater than four months", "setting": "CNS-MM; 7 CNS-MM patients", "value": "four of seven"},
      {"measurement": "patients with at least a partial response (overall response rate)", "setting": "CNS-MM; 7 CNS-MM patients, listed as MRZ", "value": "Five of 7"},
      {"measurement": "complete responses", "setting": "CNS-MM; [2]", "value": 2},
      {"measurement": "patients with at least a partial response (overall response rate)", "setting": "CNS-MM; [2]", "value": "5/7"},
      {"measurement": "Neurological Assessment", "setting": "CNS-MM; Case 1", "value": "Reduction of CSF plasma cells"},
      {"measurement": "reduction of CSF plasmacytosis", "setting": "CNS-MM; Case 1", "value": 99, "unit": "%"},
      {"measurement": "Reduction of CSF plasma cells", "setting": "CNS-MM; Case 1, C2D1", "value": "(90% C2D1)"},
      {"measurement": "Neurological Assessment", "setting": "CNS-MM; Case 2", "value": "sustained complete resolution of CSF plasmacytosis; also recorded: No CSF plasma cells detected; also recorded: Stable remission by MRI"},
      {"measurement": "Response", "setting": "CNS-MM; Case 2, ongoing C13", "value": "CR by serology; stable remission"},
      {"measurement": "Neurological Assessment", "setting": "CNS-MM; Case 3", "value": "undetectable CSF plasmacytosis since C3D1; also recorded: No evidence of FDG-avid lesions"},
      {"measurement": "IMWG Assessment Systemic Disease", "setting": "CNS-MM; Case 3: MRZ 0.8 mg/m^2 + POM 4 mg + DEX 20 mg", "value": "ongoing complete response"},
      {"measurement": "Response", "setting": "CNS-MM; Case 3, ongoing C8", "value": "CR - no evidence of active disease:"},
      {"measurement": "Neurological Assessment", "setting": "CNS-MM; Case 4", "value": "Transient improvement through"},
      {"measurement": "Response", "setting": "CNS-MM; Case 4, discontinued on C3", "value": "Best response PR with PD after C3"},
      {"measurement": "Response", "setting": "CNS-MM; Case 5, discontinued C1", "value": "Pleural effusion following C1D1"},
      {"measurement": "Neurological Assessment", "setting": "CNS-MM; Case 6", "value": "resolution of CNS disease; also recorded: Complete resolution of central"},
      {"measurement": "reduction in systemic paraprotein", "setting": "CNS-MM; Case 6", "value": 77, "unit": "%"},
      {"measurement": "Paraprotein after decrease", "setting": "CNS-MM; Case 6, from 18 g/L", "value": "18 to 4", "unit": "g/L"},
      {"measurement": "IMWG Assessment Systemic Disease", "setting": "CNS-MM; Case 7: MRZ 0.7 mg/m^2 + LEN 25 mg + DEX 10 mg", "value": "PD (increase in tumor of ≥25% from lowest response value)"},
      {"measurement": "IMWG Assessment Systemic Disease", "setting": "CNS-MM; Case 7: MRZ 0.7 mg/m^2 + LEN 25 mg + DEX 10 mg, listed as MRZ", "value": "progressive disease"},
      {"measurement": "proteasome activity in brain", "setting": "proteasome", "value": "inhibition of proteasome activity; also recorded: inhibits proteasome activity"},
      {"measurement": "distribution to brain relative to plasma Cmax", "setting": "[1]; quantitative whole body autoradiography", "value": "~30", "unit": "%"},
      {"measurement": "CNS biodistribution compared with blood levels", "setting": "[1]; radiolabeled marizomib", "value": 30, "unit": "%"},
      {"measurement": "Cmax", "setting": "clinical; blood, iv, 0.7 mg/m2", "value": "64.9 ± 1.73", "unit": "ng/mL"},
      {"measurement": "Cmax", "setting": "clinical; blood, iv, 0.8 mg/m2", "value": "26.5 ± 7.92", "unit": "ng/mL"},
      {"measurement": "Tmax", "setting": "clinical; [3]", "value": 11.3, "unit": "min"},
      {"measurement": "half-life", "setting": "clinical; [3]", "value": 32, "unit": "min"},
      {"measurement": "AUC(0-t)", "setting": "clinical; [4]", "value": 4.05, "unit": "ng·h/mL"},
      {"measurement": "Cmax", "setting": "clinical; [4]", "value": "26 ± 8", "unit": "ng/mL"},
      {"measurement": "Tmax", "setting": "clinical; [4]", "value": 0, "unit": "min"},
      {"measurement": "half-life", "setting": "clinical; [4]", "value": "7.6 ± 0.9", "unit": "min"},
      {"measurement": "Tmax", "setting": "clinical; whole blood, intravenous, […]2", "value": 4, "unit": "min"},
      {"measurement": "half-life", "setting": "clinical; whole blood, intravenous, […]2", "value": "8.8 ± 0.8", "unit": "min"},
      {"measurement": "AUC(0-t)", "setting": "clinical; whole blood, iv, 0.7 mg/m2", "value": 3.22, "unit": "ng·h/mL"},
      {"measurement": "Tmax", "setting": "clinical; whole blood, iv, 0.7 mg/m2", "value": 21.3, "unit": "min"},
      {"measurement": "Vd", "setting": "clinical; whole blood, iv, 0.7 mg/m2", "value": "48.3 ± 16.1", "unit": "L"},
      {"measurement": "half-life", "setting": "clinical; whole blood, iv, 0.7 mg/m2", "value": "16 ± 8.08", "unit": "min"},
      {"measurement": "AUC(0-t)", "setting": "clinical; whole blood, iv, 0.8 mg/m2", "value": 6.53, "unit": "ng·h/mL"},
      {"measurement": "Tmax", "setting": "clinical; whole blood, iv, 0.8 mg/m2", "value": 8, "unit": "min"},
      {"measurement": "half-life", "setting": "clinical; whole blood, iv, 0.8 mg/m2", "value": "7.27 ± 0.423", "unit": "min"},
      {"measurement": "Tmax", "setting": "clinical; whole blood, iv, […]2", "value": 15.5, "unit": "min"},
      {"measurement": "Vd", "setting": "clinical; whole blood, iv, […]2", "value": "54.4 ± 10.6", "unit": "L"},
      {"measurement": "half-life", "setting": "clinical; whole blood, iv, […]2", "value": "8.2 ± 0.8", "unit": "min"}
    ]}
  ]
}
